Measurements as given in paper PMC10808981, “Synthesis and structure–activity relationships of aryl fluorosulfate-based inhibitors as novel antitubercular agents” (Bioorganic & Medicinal Chemistry Letters, 2024).
Converted amounts (≈) assume the structure as drawn.

Tests used:
HEK293T cells = test: HEK293T cytotoxicity assay (Cell Titer-Glo); format: cell-based; settings: for CC50: HEK293T, 3 days
Method: (§1) HEK293T (ATCC) were grown in DMEM (Gibco Cat # 11965-092) supplemented with 10% heat-inactivated FBS, Pen Strep (Gibco) 1X in a 5% CO2 humidified atmosphere at 37◦C. Cells were washed once with DPBS 1X (Gibco), incubated for less than 5 minutes at room temperature in TrypLE solution (Gibco), washed once in propagation medium to remove trypsin, and counted with Trypan Blue. 5 µL of cell suspension ([…]) was dispensed into 1536-well plates containing serial 3-fold drug dilution ranging from 40 µM to 2 nM and incubated for 3 days in a 5% CO2 humidified atmosphere at 37 ◦C. Cell Titer-Glo® Luminescent Cell Viability Assay (Promega) reagent was diluted 1:1 with water and then 2 µL were added to plates. Luminescence was measured in a PHERAStar plate reader (BMG Labtech) and data normalized to negative control (DMSO) minus inhibitor (Puromycin 10 µM). Dose-response curves were fit using the Smart Fit function in Genedata Screener Analyzer (v16.0.8).

Mtb H37Rv = test: MIC determination in Mtb H37Rv, Microdilution Alamar Blue Assay (MABA); format: cell-based, Mycobacterium tuberculosis; settings: for MIC: Mtb H37Rv, MABA, 7 days
HepG2 cells = settings: for CC50: read-out: HepG2 CC50, HepG2, 3 days
Mtb H37Ra = test: microbe, parasite or virus in culture; format: cell-based; settings: Mycobacterium tuberculosis, 168 h, read-out: H37Ra IC50
[1] = HEK293T cytotoxicity assay (Cell Titer-Glo); format: cell-based; settings: human, HEK293T cells; HEK293T, 3 days
Method: as §1

in vitro = settings: human
Mtb CDC1551 = test: Anti-TB activity against Mtb CDC1551 (IC90), Alamar Blue; format: cell-based; settings: Mycobacterium tuberculosis
[2] = Mycobacterium tuberculosis, H37RV, 168 h

Compound	MIC (Mtb H37Rv; [2]) [µM]	CC50 at 72 h (in vitro) [µM]	IC90 (Mtb CDC1551) [µM]	CC50 at 3 days [1] [µM]	further results
4-((2,6-difluoro-4-(1H-1,2,3-triazol-1-yl)benzyl)oxy)phenyl sulfurofluoridate [Compound 3 m]					CC50 (HEK293T cells): > 40 µM; MIC (Mtb H37Rv): 0.22 µM; CC50 (HepG2 cells): > 40 µM
4-((2,6-difluoro-4-(3-isopropyl-1H-1,2,4-triazol-1-yl)benzyl)oxy)phenyl sulfurofluoridate [Compound 20 h]					CC50 (HEK293T cells): > 40 µM; MIC (Mtb H37Rv): 0.31 µM; CC50 (HepG2 cells): > 40 µM
CC(=O)Nc1ccc(COc2ccc(OS(=O)(=O)F)cc2)cc1 [Compound 2]					IC50 (Mtb H37Ra): 1.3 µM
O=S(=O)(F)Oc1ccc(OCc2ccc(-n3cncn3)cc2)cc1 [Compound 3a, 4-((4-(1H-1,2,4-triazol-1-yl)benzyl)oxy)phenyl sulfurofluoridate]	2.84 (≈ 0.992 µg/mL)	19.3	4.71		CC50 at 72 h [1]: 11.6 µM; IC50 (Mtb H37Ra): 1.5 µM
COc1cc(OCc2ccc(-n3cncn3)cc2)ccc1OS(=O)(=O)F [Compound 3b, 4-((4-(1H-1,2,4-triazol-1-yl)benzyl)oxy)-2-methoxyphenyl sulfurofluoridate]	25 (≈ 9.48 µg/mL)	13.3	> 30	> 40	anti-TB activity against Mtb (in words) (Mtb H37Rv): not active
O=S(=O)(F)Oc1ccc(OCc2ccc(-n3cncn3)cc2)cc1Cl [Compound 3c, 4-((4-(1H-1,2,4-triazol-1-yl)benzyl)oxy)-2-chlorophenyl sulfurofluoridate]		5.8	4.64		CC50 at 72 h [1]: 3.7 µM; cytotoxicity against HEK293T (in words) (HEK293T cells): exhibited cytotoxicity; cytotoxicity against HepG2 (in words) (HepG2 cells): exhibited cytotoxicity
O=S(=O)(F)Oc1ccc(OCc2ccc(-n3cncn3)cc2F)cc1 [Compound 3d, 4-((2-fluoro-4-(1H-1,2,4-triazol-1-yl)benzyl)oxy)phenyl sulfurofluoridate]	0.6 (≈ 0.22 µg/mL)	12.5	1.3		CC50 at 72 h [1]: 22.7 µM
O=S(=O)(F)Oc1ccc(OCc2c(F)cc(-n3cncn3)cc2F)cc1 [Compound 3i, 4-((2,6-difluoro-4-(1H-1,2,4-triazol-1-yl)benzyl)oxy)phenyl sulfurofluoridate]	0.6 (≈ 0.231 µg/mL)	5.8		> 40	selectivity index (SI) (HepG2 cells; HepG2 cytotoxicity vs H37Rv MIC): 9.6
CC(=O)Nc1ncn(-c2cc(F)c(COc3ccc(OS(=O)(=O)F)cc3)c(F)c2)n1 [Compound 21a, 4-((4-(3-acetamido-1H-1,2,4-triazol-1-yl)-2,6-difluorobenzyl)oxy)phenyl sulfurofluoridate]	0.15 (≈ 0.0664 µg/mL)			> 40	CC50 (in vitro): > 40 µM
CC(C)S(=O)(=O)Nc1ncn(-c2cc(F)c(COc3ccc(OS(=O)(=O)F)cc3)c(F)c2)n1 [Compound 21e, 4-((2,6-difluoro-4-(3-((1-methylethyl)sulfonamido)-1H-1,2,4-triazol-1-yl)benzyl)oxy)phenyl sulfurofluoridate]	0.31 (≈ 0.157 µg/mL)			> 40	CC50 (in vitro): > 40 µM
CC(C)(C)S(=O)(=O)Nc1ncn(-c2cc(F)c(COc3ccc(OS(=O)(=O)F)cc3)c(F)c2)n1 [Compound 21f, 4-((4-(3-((1,1-dimethylethyl)sulfonamido)-1H-1,2,4-triazol-1-yl)-2,6-difluorobenzyl)oxy)phenyl sulfurofluoridate]	2.5 (≈ 1.3 µg/mL)			> 40	CC50 (in vitro): > 40 µM
